# Read-outs that look alike come from different tables or passages of the source.
# How the values were obtained:
# [1] = tested on: UM-UC-9 engineered cells; experiment: Cell proliferation / short-term viability assay, CellTiter-Glo 144 h; type: cell-based, human; conditions: read-out: CTGlo 144 h UMUC9.5, G150
# Experimental: Cell Seeding for Proliferation Assay
# UM-UC-9 engineered cells were cultured in Dulbecco's Modified Eagle Medium (DMEM) supplemented with 10% FBS, 25 mM glucose (high glucose), 4.0 mM L-glutamine, 2.0 mM GlutaMAX™, 1.0 mM pyruvate, 1.0% non-essential amino acids (NEAA) in a 95% humidified incubator at 37° C. with 5% CO2. Cell banks of UM-UC-9 engineered assay-ready cells (ARCs) were prepared from a very active growth stage. Vials of ARCs containing approximately 5×10^6 cells per vial were stored in liquid nitrogen vapor phase cryostorage until use.
# For making assay plates, ARCs were recovered from cryostorage, strained in a […] cell strainer, verified for cell viability >90% and counted using a cell counter (Cellometer Auto 1000, Nexelom). Each cell line was seeded into 384-well plates (50 μl/well) using DMEM medium at a density previously determined to be in log growth phase 7 days post-seeding (500 cells/well) using a bulk reagent dispenser (Multidrop™ Combi, Thermo Scientific) with a large-bore plastic-tip cassette pre-sanitized with 70% ethanol. One plate of cells was designated as the pretreatment time-zero (T0) control. Freshly seeded plates were allowed to sit lidded for 30 minutes within a biosafety cabinet for cells to settle distributed within the plate wells uniformly and then placed into an automated incubator (STX110, Liconic) at 37° C., 5% CO2, and 95% relative humidity.
# Preparation of Test Compound in Assay-Ready Plate
# Compounds were stored in a low-temperature sample archive as 10 mM dimethyl sulfoxide (DMSO) solutions at −20° C. under reduced humidity (−45° C. dew point) and protected from light. All samples in the automated archive are stored in 2D barcoded polypropylene tubes, tracked through a laboratory information management system (LIMS), and have been verified for identity and purity by NMR (Chemistry, H3 Biomedicine) and by LCMS (Analytical Chemistry, H3 Biomedicine) at the time of sample registration. Identity by mass matching and purity are again verified at the time of sample request fulfillment by redundant LCMS methods (acidic and basic separation protocols; Analytical Chemistry, H3 Biomedicine). Samples retrieved from low-temperature archive storage were solubilized by heated sonication (Bransonic® Ultrasonic Bath, Branson), transferred (Microlab Starlet, Hamilton) and serially-diluted (Viaflo Assist, Integra) by low-volume liquid handlers, and tracked in LIMS by automation log files to create a ID barcoded master dose-response plate (MDR) to serve as a standard source for all assay-ready plates (ARP) used within an experiment. ARPs prepared by acoustic transfer (ATS-100, EDC) of nL volumes from the MDR source were heat-sealed (PlateLoc, Agilent) and stored at −20° C. prior to use (<7 days from production). Tracking of liquid transfers via acoustic dispenser log files were used to update the LIMS system for all ARP plate maps.
# Measurement of Pretreatment Control Cells and Sample Anti-Proliferative Effects on Treated Cells
# On day 0 (pretreatment cells) or day 7 (treated cells), a cell proliferation assay was performed using an automated robotic assay platform (ACell, High-Res Biosolutions). Cell ARP's were removed from incubation, their plate lid discarded, and using a bulk reagent dispenser (Multidrop™ Combi, Thermo Scientific with a small-bore metal-tip cassette) 25 μL (1/2 volume) of Cell Titer-Glo® 2.0 Cell Viability Assay reagent (Promega) was added to wells of columns 1-23 (column 24 will be used as plate background or positive control). Cell ARP's were incubated at room temperature in an automation hotel position for a total of 1.0 minute while the next plate was delivered to the bulk reagent dispenser and then lid-free cell ARP's were returned to incubate at 37° C. for 2.5 hours. […]
# [2] = molecular target: T1, His6-TEV-PPARγ-(234-505) (Homo sapiens, UniProt P37231); experiment: TR-FRET Assay to Measure Co-R Peptide Recruitment to PPARγ; type: biochemical
# T1 construct: The His6-TEV-PPARγ-(234-505) protein for assay was expressed and purified; TEV cleavage site (N); made in house
# T1 sequence (P37231 234-505): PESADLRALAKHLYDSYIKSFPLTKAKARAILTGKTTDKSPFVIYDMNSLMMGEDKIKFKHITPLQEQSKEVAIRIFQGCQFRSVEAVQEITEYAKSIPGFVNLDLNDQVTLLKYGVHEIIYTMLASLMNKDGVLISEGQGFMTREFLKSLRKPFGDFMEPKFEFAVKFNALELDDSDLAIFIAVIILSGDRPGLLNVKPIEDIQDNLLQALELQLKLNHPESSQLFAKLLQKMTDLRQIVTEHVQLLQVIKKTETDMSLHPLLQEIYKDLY
# How it was run: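 His-tagged PPARγ (or controls) was preincubated with compound for 20 minutes at room temperature, then 5 nM anti-His terbium antibody and 200 nM FITC-labeled SMRT-ID2 corepressor peptide (final) were added for a further hour. TR-FRET signal was normalized to percent response using 500 nM T0070907 and DMSO controls.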
# [3] = Co-R peptide (SMRT-ID2) recruitment, top final concentration 20 μM, read-out: TR-FRET i-Ag, AC50
# [4] = Co-R peptide recruitment to PPARγ, read-out: TR-FRET AC50
smiles,measurement,setting,value
"COc1cc(-c2cc(C(=O)N3CCC(C(=O)NC4CCC(C)CC4)CC3)n[nH]2)c(Cl)cn1 (mixture of isomers) [Example 101, 1-(5-(5-chloro-2-methoxypyridin-4-yl)-1H-pyrazole-3-carbonyl)-N-((1s,4s)-4-methylcyclohexyl)piperidine-4-carboxamide and 1-(5-(5-chloro-2-methoxypyridin-4-yl)-1H-pyrazole-3-carbonyl)-N-((1r,4r)-4-methylcyclohexyl)piperidine-4-carboxamide]",IC50,[1],305 nM
same,AC50,[2]; [3],29.4 nM
COc1cc(-c2[nH]nc(C(=O)N3CCC(C(=O)NC4CCC(C)CC4)CC3)c2F)ccn1 (mixture of isomers) [Example 102],IC50,"[1]; Homo sapiens, UM-UC-9, 144 h",643 nM
same,AC50,[2]; [3],321 nM
"COc1cc(-c2cc(C(=O)N3CCC(C(=O)NC4CCC(C)CC4)CC3)n[nH]2)ccn1 (mixture of isomers) [Example 105, 1-(5-(2-methoxypyridin-4-yl)-1H-pyrazole-3-carbonyl)-N-(4-methylcyclohexyl)piperidine-4-carboxamide]",IC50,"[1]; Homo sapiens, UM-UC-9, 144 h",1020 nM
same,AC50,[2]; [3],537 nM
"COc1cc(-c2[nH]nc(C(=O)N3CCC(C(=O)NC4CCC(C)CC4)CC3)c2Cl)ccn1 (mixture of isomers) [Example 110, 1-[4-chloro-5-(2-methoxypyridin-4-yl)-1H-pyrazole-3-carbonyl]-N-[(1s,4s)-4-methylcyclohexyl]piperidine-4-carboxamide and 1-[4-chloro-5-(2-methoxypyridin-4-yl)-1H-pyrazole-3-carbonyl]-N-[(1r,4r)-4-methylcyclohexyl]piperidine-4-carboxamide]",IC50,[1],1210 nM
same,AC50,[2]; [3],575 nM
"COc1cc(-c2cc(C(=O)N3CCC(C(=O)NC4CCC(C)CC4)CC3)n[nH]2)c(F)cn1 (mixture of isomers) [Example 114, 1-(5-(5-fluoro-2-methoxypyridin-4-yl)-1H-pyrazole-3-carbonyl)-N-((1s,4s)-4-methylcyclohexyl)piperidine-4-carboxamide and 1-(5-(5-fluoro-2-methoxypyridin-4-yl)-1H-pyrazole-3-carbonyl)-N-((1r,4r)-4-methylcyclohexyl)piperidine-4-carboxamide]",IC50,[1],120 nM
same,AC50,[2]; [3],78.5 nM
"COc1cc(-c2cc(C(=O)N3CCC(C(=O)NC4CCC(C(F)(F)F)CC4)CC3)n[nH]2)c(Cl)cn1 (mixture of isomers) [Example 118, 1-[5-(5-chloro-2-methoxypyridin-4-yl)-1H-pyrazole-3-carbonyl]-N-[(1s,4s)-4-(trifluoromethyl)cyclohexyl]piperidine-4-carboxamide and 1-[5-(5-chloro-2-methoxypyridin-4-yl)-1H-pyrazole-3-carbonyl]-N-[(1r,4r)-4-(trifluoromethyl)cyclohexyl]piperidine-4-carboxamide]",IC50,[1],121 nM
"COc1cc(-c2cc(C(=O)N3CCC(C(=O)NC(C)c4cccc(Cl)c4)CC3)n[nH]2)c(Cl)cn1 (racemic) [Example 115, (R)-1-[5-(5-chloro-2-methoxypyridin-4-yl)-1H-pyrazole-3-carbonyl]-N-[1-(3-chlorophenyl)ethyl]piperidine-4-carboxamide and (S)-1-[5-(5-chloro-2-methoxypyridin-4-yl)-1H-pyrazole-3-carbonyl]-N-[1-(3-chlorophenyl)ethyl]piperidine-4-carboxamide]",IC50,[1],428 nM
"COc1cc(-c2cc(C(=O)N3CCC(C(=O)NC4CCC(C)CC4)CC3)n[nH]2)c(Cl)cn1 (single isomer, unassigned) [Example 101-A]",IC50,[1]; listed as 101a,> 10000 nM
"COc1cc(-c2cc(C(=O)N3[C@@H]4CC[C@H]3C[C@H](C(=O)NC3CCC(C#N)(C(F)(F)F)CC3)C4)n[nH]2)c(F)cn1 (stereo partly drawn) [Example 438, (1R,3s,5S)—N-(4-cyano-4-(trifluoromethyl)cyclohexyl)-8-(5-(5-fluoro-2-methoxypyridin-4-yl)-1H-pyrazole-3-carbonyl)-8-azabicyclo[3.2.1]octane-3-carboxamide]",IC50,"[1]; Homo sapiens, UM-UC-9, 144 h",1150 nM
"COc1cc(-c2cc(C(=O)N3CC[C@H](C(=O)NCc4nc(C)cnc4Cl)CC34CC4)n[nH]2)c(F)cn1 [Example 451, (S)—N-((3-chloro-6-methylpyrazin-2-yl)methyl)-4-(5-(5-fluoro-2-methoxypyridin-4-yl)-1H-pyrazole-3-carbonyl)-4-azaspiro[2.5]octane-7-carboxamide]",IC50,"[1]; Homo sapiens, UM-UC-9, 144 h",9.6 nM
"COc1cc(-c2cc(C(=O)N3CC[C@H](C(=O)NCc4ncc(C#N)cn4)CC34CC4)n[nH]2)c(F)cn1 [Example 456, (S)—N-((5-cyanopyrimidin-2-yl)methyl)-4-(5-(5-fluoro-2-methoxypyridin-4-yl)-1H-pyrazole-3-carbonyl)-4-azaspiro[2.5]octane-7-carboxamide]",IC50,"[1]; Homo sapiens, UM-UC-9, 144 h",312 nM
"COc1cnc(CNC(=O)[C@H]2CCN(C(=O)c3cc(-c4cc(OC)ncc4F)[nH]n3)C3(CC3)C2)c(C(F)(F)F)c1 [Example 527, (S)-4-(5-(5-fluoro-2-methoxypyridin-4-yl)-1H-pyrazole-3-carbonyl)-N-((5-methoxy-3-(trifluoromethyl)pyridin-2-yl)methyl)-4-azaspiro[2.5]octane-7-carboxamide]",IC50,"[1]; Homo sapiens, UM-UC-9, 144 h",5 nM
CC(C)CN(C)C(=O)C1CCN(C(=O)c2cc(-c3ccncc3)[nH]n2)CC1 [N-methyl-N-(2-methylpropyl)-1-[5-(pyridin-4-yl)-1H-pyrazole-3-carbonyl]piperidine-4-carboxamide],AC50,[2]; [4],> 1000 nM
CCCN(C)C(=O)C1CCN(C(=O)c2cc(-c3ccncc3)[nH]n2)CC1 [N-methyl-N-propyl-1-[5-(pyridin-4-yl)-1H-pyrazole-3-carbonyl]piperidine-4-carboxamide],AC50,[2]; [4],> 1000 nM
O=C(Nc1ccccc1)C1CCN(C(=O)c2cc(-c3ccncc3)[nH]n2)CC1 [N-phenyl-1-[5-(pyridin-4-yl)-1H-pyrazole-3-carbonyl]piperidine-4-carboxamide],AC50,[2]; [4],> 1000 nM
CC(C)(C)Oc1ccc(CNC(=O)C2CCN(C(=O)c3cc(-c4ccncc4)[nH]n3)CC2)cc1 [N-{[4-(tert-butoxy)phenyl]methyl}-1-[5-(pyridin-4-yl)-1H-pyrazole-3-carbonyl]piperidine-4-carboxamide],AC50,[2]; [4],> 1000 nM
COc1cc(-c2cc(C(=O)N3CCC(C(=O)NC45CC(C4)C5)CC3)n[nH]2)c(Cl)cn1 [N-{bicyclo[1.1.1]pentan-1-yl}-1-[5-(5-chloro-2-methoxypyridin-4-yl)-1H-pyrazole-3-carbonyl]piperidine-4-carboxamide],AC50,[2]; [4],> 1000 nM
O=C(c1cc(-c2ccncc2)[nH]n1)N1CCC(C(=O)N2CCC[C@H]2CO)CC1 [[(2S)-1-{1-[5-(pyridin-4-yl)-1H-pyrazole-3-carbonyl]piperidine-4-carbonyl}pyrrolidin-2-yl]methanol],AC50,[2]; [4],> 1000 nM
